From ChEMBL document CHEMBL1151469, “Cytotoxic activity of N-chlorotaurine on Acanthamoeba spp” (Antimicrob Agents Chemother, 2008)
pEC50: −log10 of the molar value. Calls of active or inactive are those of the source. No cut-off for these calls is given here.

How the values were obtained:
Acanthamoeba polyphaga [1] = experiment: Amoebicidal activity against Trophozoites of Acanthamoeba polyphaga 5SU assessed as increase in reduction in cell count at 20 mM in peptone yeast extract glucose medium at pH 7 after 6 hrs by hemocytometer using trypan blue stain; type: functional, organism-based
Acanthamoeba hatchetti [2] = experiment: Amoebicidal activity against Trophozoites of Acanthamoeba hatchetti 11DS assessed as rounding of the cells at 0.16 M in peptone yeast extract glucose medium at pH 7 by hemocytometer using trypan blue stain; type: functional, organism-based
Acanthamoeba castellanii [3] = experiment: Amoebicidal activity against Trophozoites of Acanthamoeba castellanii 40AB assessed as log reduction in cell count at 10 mM in phosphate buffered saline at pH 7 after 6 hrs by hemocytometer using trypan blue stain; type: functional
Acanthamoeba hatchetti [4] = experiment: Amoebicidal activity against Trophozoites of Acanthamoeba hatchetti 11DS assessed as killing time at 55 mM in peptone yeast extract glucose medium at pH 7 by hemocytometer using trypan blue stain; type: functional
Acanthamoeba polyphaga [5] = experiment: Amoebicidal activity against Trophozoites of Acanthamoeba polyphaga 5SU at 55 mM in phosphate buffered saline at pH 7 after 1 hr by hemocytometer using trypan blue stain in presence of 190 mM ammonium chloride; type: functional, organism-based
Acanthamoeba polyphaga [6] = experiment: Amoebicidal activity against Trophozoites of Acanthamoeba polyphaga 5SU assessed as increase in cell killing at 10 mM in phosphate buffered saline at pH 7 within 3 hrs by hemocytometer using trypan blue stain in presence of 34 mM ammonium chloride; type: functional, organism-based
Acanthamoeba castellanii [7] = experiment: Amoebicidal activity against excysted trophozoites of Acanthamoeba castellanii 4CL at 55 mM in peptone yeast extract glucose medium after 6 days by hemocytometer using trypan blue stain; type: functional
Acanthamoeba polyphaga [8] = experiment: Amoebicidal activity against Trophozoites of Acanthamoeba polyphaga 5SU assessed as log reduction in cell count at 10 mM in phosphate buffered saline at pH 5 after 1 hr by hemocytometer using trypan blue staining; type: functional, organism-based
Acanthamoeba castellanii [9] = experiment: Amoebicidal activity against excysted trophozoites of Acanthamoeba castellanii 40AB at 55 mM in peptone yeast extract glucose medium after 11 days by hemocytometer using trypan blue stain; type: functional
Acanthamoeba castellanii [10] = experiment: Amoebicidal activity against Trophozoites of Acanthamoeba castellanii 4CL assessed as killing time at 10 mM in phosphate buffered saline at pH 7 by hemocytometer using trypan blue stain; type: functional
Acanthamoeba castellanii [11] = experiment: Amoebicidal activity against Trophozoites of Acanthamoeba castellanii 40AB assessed as killing time at 10 mM in phosphate buffered saline at pH 7 by hemocytometer using trypan blue stain; type: functional
Acanthamoeba polyphaga [12] = experiment: Amoebicidal activity against Trophozoites of Acanthamoeba polyphaga 5SU in peptone yeast extract glucose medium at pH 7 after 24 hrs by hemocytometer using trypan blue stain; type: functional, organism-based
Acanthamoeba hatchetti [13] = experiment: Amoebicidal activity against Trophozoites of Acanthamoeba hatchetti 11DS assessed as reduction of killing time at 10 mM in phosphate buffered saline at pH 5 by hemocytometer using trypan blue stain in presence of 160 mM beta-alanine; type: functional
Acanthamoeba polyphaga [14] = experiment: Amoebicidal activity against Trophozoites of Acanthamoeba polyphaga 5SU assessed as log reduction in cell count at 10 mM in phosphate buffered saline at pH 7 after 6 hrs by hemocytometer using trypan blue stain; type: functional
Acanthamoeba polyphaga [15] = experiment: Amoebicidal activity against Trophozoites of Acanthamoeba polyphaga 5SU assessed as complete killing time at 55 mM in phosphate buffered saline at pH 7 after 6 hrs by hemocytometer using trypan blue stain in presence of 190 mM ammonium chloride; type: functional, organism-based
Acanthamoeba polyphaga [16] = experiment: Amoebicidal activity against Trophozoites of Acanthamoeba polyphaga 5SU assessed as killing time at 55 mM in peptone yeast extract glucose medium at pH 7 by hemocytometer using trypan blue stain; type: functional
Acanthamoeba castellanii [17] = experiment: Amoebicidal activity against Trophozoites of Acanthamoeba castellanii 40AB assessed as killing time at 20 mM in peptone yeast extract glucose medium at pH 7 by hemocytometer using trypan blue stain; type: functional
Acanthamoeba hatchetti [18] = experiment: Amoebicidal activity against Trophozoites of Acanthamoeba hatchetti 11DS assessed as killing time at 10 mM in phosphate buffered saline at pH 7 by hemocytometer using trypan blue stain; type: functional
Acanthamoeba castellanii [19] = experiment: Amoebicidal activity against Trophozoites of Acanthamoeba castellanii 40AB assessed as log reduction in cell count at 20 mM in peptone yeast extract glucose medium at pH 7 after 24 hrs by hemocytometer using trypan blue stain; type: functional
Acanthamoeba polyphaga [20] = experiment: Amoebicidal activity against excysted trophozoites of Acanthamoeba polyphaga 5SU at 55 mM in peptone yeast extract glucose medium after 11 days by hemocytometer using trypan blue stain; type: functional
Acanthamoeba polyphaga [21] = experiment: Amoebicidal activity against Trophozoites of Acanthamoeba polyphaga 5SU assessed as rounding of cells at 55 mM in phosphate buffered saline at pH 7 after 15 mins by hemocytometer using trypan blue stain in presence of 190 mM ammonium chloride; type: functional, organism-based
Acanthamoeba polyphaga [22] = experiment: Amoebicidal activity against Trophozoites of Acanthamoeba polyphaga 5SU assessed as complete loss of viability at 55 mM in phosphate buffered saline after 24 hrs by hemocytometer using trypan blue stain in presence of 190 mM ammonium chloride; type: functional, organism-based
Acanthamoeba hatchetti [23] = experiment: Amoebicidal activity against Trophozoites of Acanthamoeba hatchetti 11DS assessed as log reduction in cell count at 10 mM in phosphate buffered saline after 24 hrs by hemocytometer using trypan blue staining; type: functional, organism-based
Acanthamoeba hatchetti [24] = experiment: Amoebicidal activity against Trophozoites of Acanthamoeba hatchetti 11DS assessed as complete loss of viability at 55 mM in phosphate buffered saline incubated in xenic agar medium after 14 days by hemocytometer using trypan blue stain in presence of 190 mM ammonium chloride; type: functional, organism-based
Acanthamoeba hatchetti [25] = experiment: Amoebicidal activity against Trophozoites of Acanthamoeba hatchetti 11DS in peptone yeast extract glucose medium at pH 7 after 24 hrs by hemocytometer using trypan blue stain; type: functional, organism-based
Acanthamoeba hatchetti [26] = experiment: Amoebicidal activity against Trophozoites of Acanthamoeba hatchetti 11DS assessed as killing time at 55 mM in phosphate buffered saline at pH 7 by hemocytometer using trypan blue stain; type: functional
Acanthamoeba hatchetti [27] = experiment: Amoebicidal activity against Trophozoites of Acanthamoeba hatchetti 11DS in peptone yeast extract glucose medium at pH 7 after 24 hrs by hemocytometer using trypan blue stain in presence of 68 mM ammonium chloride; type: functional, organism-based
Acanthamoeba polyphaga [28] = experiment: Amoebicidal activity against Trophozoites of Acanthamoeba polyphaga 5SU in peptone yeast extract glucose medium at pH 7 after 6 hrs by hemocytometer using trypan blue stain; type: functional, organism-based
Acanthamoeba hatchetti [29] = experiment: Amoebicidal activity against excysted trophozoites of Acanthamoeba hatchetti 11DS at 55 mM in peptone yeast extract glucose medium after 24 hrs by hemocytometer using trypan blue stain; type: functional
Acanthamoeba hatchetti [30] = experiment: Amoebicidal activity against excysted trophozoites of Acanthamoeba hatchetti 11DS at 55 mM in peptone yeast extract glucose medium after 11 days by hemocytometer using trypan blue stain; type: functional
Acanthamoeba polyphaga [31] = experiment: Amoebicidal activity against Trophozoites of Acanthamoeba polyphaga 5SU assessed as rounding of the cells at 55 mM in peptone yeast extract glucose medium at pH 7 after 30 mins by hemocytometer using trypan blue stain; type: functional, organism-based
Acanthamoeba hatchetti [32] = experiment: Amoebicidal activity against Trophozoites of Acanthamoeba hatchetti 11DS assessed as killing time at 10 mM in phosphate buffered saline at pH 5 by hemocytometer using trypan blue stain in presence of 290 mM ammonium chloride; type: functional
Acanthamoeba hatchetti [33] = experiment: Amoebicidal activity against Trophozoites of Acanthamoeba hatchetti 11DS assessed as log reduction in cell count at 10 mM in phosphate buffered saline at pH 5 after 24 hrs by hemocytometer using trypan blue stain in presence of 34 mM ammonium chloride; type: functional, organism-based
Acanthamoeba castellanii [34] = experiment: Amoebicidal activity against excysted trophozoites of Acanthamoeba castellanii 4CL at 55 mM in peptone yeast extract glucose medium after 24 hrs by hemocytometer using trypan blue stain; type: functional

O=S(=O)(O)CCNCl
Activity (Acanthamoeba polyphaga [1]): Active
Activity (Acanthamoeba hatchetti [2]): Active
Activity (Acanthamoeba castellanii [3]): 2
Activity (Acanthamoeba hatchetti [4]): 3 h
Activity (Acanthamoeba polyphaga [5]): Active
Activity (Acanthamoeba polyphaga [6]): Active
Activity (Acanthamoeba castellanii [7]): 7200
Activity (Acanthamoeba polyphaga [8]): Active
Activity (Acanthamoeba castellanii [9]): 130000
Activity (Acanthamoeba castellanii [10]): 36 h
Activity (Acanthamoeba castellanii [11]): 30 h
pEC50 (Acanthamoeba polyphaga [12]): 2.09
Activity (Acanthamoeba hatchetti [13]): 15 h
Activity (Acanthamoeba polyphaga [14]): 2
Activity (Acanthamoeba polyphaga [15]): Active
Activity (Acanthamoeba polyphaga [16]): 3 h
Activity (Acanthamoeba castellanii [17]): 36 h
Activity (Acanthamoeba hatchetti [18]): 30 h
Activity (Acanthamoeba castellanii [19]): 2
Activity (Acanthamoeba polyphaga [20]): 200000
Activity (Acanthamoeba polyphaga [21]): Active
Activity (Acanthamoeba polyphaga [22]): Active
Activity (Acanthamoeba hatchetti [23]): Active
Activity (Acanthamoeba hatchetti [24]): inactive
pEC50 (Acanthamoeba hatchetti [25]): 2.13
Activity (Acanthamoeba hatchetti [26]): 30 min
pEC50 (Acanthamoeba hatchetti [27]): 1.99
pEC50 (Acanthamoeba polyphaga [28]): 1.93
Activity (Acanthamoeba hatchetti [29]): 4600
Activity (Acanthamoeba hatchetti [30]): 410000
Activity (Acanthamoeba polyphaga [31]): Active
Activity (Acanthamoeba hatchetti [32]): 24 h
Activity (Acanthamoeba hatchetti [33]): inactive
Activity (Acanthamoeba castellanii [34]): 0
